# Patent publication US20190152905A1 (priority 2016, published 2019)
# “And” between values parts separate entries of the source, which are not always exact repeats. Equal values may be shown once.
# Tests used:
# [1] = tested on: plasma; test: Anticoagulant activity: prothrombin time (PT), Sysmex CA-1500; format: biochemical, human; details: 20 μl sample + 80 μl plasma, number in label = g/dL
# Description: (§1) Antithrombotic (anticoagulant) activity was evaluated according to a previously reported method. Each of thromborel S, actin and thrombin, which are reagents for Sysmex CA-1500 for analysis of PT, aPTT and TT, was mounted in Sysmex CA-1500 (Siemens Healthcare, Germany) which is an automated blood coagulation test device. According to the automated procedure of the test device, clotting time (sec) (prothrombin time (PT), activated partial thromboplastin time (aPTT) and thrombin time (TT)) was measured. A sufficient amount of a sample for each of the three analyses was about 400 uL of an 80:20 mixture of plasma and a test substance.
# (§2) The isolated plasma was used in an experiment in a fresh state within 5-6 hours.
# (§3) In this experiment, for the relative comparison of the measured clotting time (sec) (PT, aPTT and TT) between test groups, clotting time prolongation (%) relative to triple distilled water (purified water) that is a normal control test sample was statistically analyzed. For statistical analysis, the […] anticoagulant activities of test materials were comparatively analyzed using SPSS IBM version 21.0 by one-way ANOVA at p<0.05, and significance comparison between groups was performed by Duncan's test.
# (§4) The aspirin solution was immediately used at room temperature in a light-shielded state or was cold-stored.
# (§5) As a control, aspirin was used, and as a vehicle control, triple distilled water (purified water) was used instead of the sample.
# [2] = tested on: plasma; test: Anticoagulant activity: activated partial thromboplastin time (aPTT), Sysmex CA-1500; format: biochemical, human; details: 20 μl sample + 80 μl plasma, number in label = g/dL
# Description: as §1, §2, §3, §4, §5
# [3] = tested on: plasma; test: Anticoagulant activity: thrombin time (TT), Sysmex CA-1500; format: biochemical, human; details: 20 μl sample + 80 μl plasma, number in label = g/dL
# Description: as §1, §2, §3, §4, §5
# [4] = tested on: male mice (C57BL/6), high-fat diet; test: Glucose tolerance test (GTT) at 8 weeks of high-fat diet feeding; format: in vivo
# Description: (§6) Using 8-week-old male mice (C57BL/6) (purchased from CoreTech), anti-diabetic candidate materials were evaluated using a GTT (Glucose Tolerance Test) that is a typical method for diagnosis of diabetes.
# (§7) Mice were housed at a temperature of 22±2° C. and a relative humidity of 55-60% with 12-hr light/12-hr dark cycles. Five animals were allotted to each group, and mice from the same mother were grouped into one group, because male mice tend to fight together.
# (§8) As feed, high-fat diet (60% of calories from fat; Research Diet Inc., New Brunswick, N.J.) and water were fed ad libitum for 10 weeks. Herein, the water fed contained the samples prepared in Examples 1-2 (3), 2-1, 2-4-1, 2-4-2 and 2-5. As a positive control, metformin (M-072, Sigma) (250 mg/kg) was used, and as a control, the samples prepared in Comparative Examples 1-1, 2-3-2, 2-5-1, 2-5-2 and 2-6 were used.
# (§9) For reference, each of the samples prepared in Examples 2-4-1, 2-4-2 and 2-5 was set to the amount to be taken by an adult (60 kg) for 3 days, and the amount was converted into a mouse dose (12-fold/kg, see the US NIH guidance), thereby preparing animal feed. Namely, the amount to be taken by an adult (60 kg) for 3 days is 180-day dose/kg, which corresponds to 15-day dose/kg for mice. Thus, the amount corresponds to 750-day dose/mouse (20 g), because the average weight of mice is about 20 g. Thus, one mouse was allowed to take 1/750 of the prepared sample each day.
# (§10) In addition, each of the samples prepared in Examples 1-2 (3) and 2-1 was set to the amount to be taken by an adult (60 kg) for 2 days, and the amount was converted into a mouse dose (12-fold/kg, see the US NIH guidance), thereby preparing animal feed. Namely, the amount to be taken by an adult (60 kg) for 2 days is 120-day dose/kg, which corresponds to 10-day dose/kg for mice. Thus, the amount corresponds to 500-day dose/mouse (20 g), because the average weight of mice is about 20 g. Thus, one mouse was allowed to take 1/500 of the prepared sample each day.
# At 8 weeks of high-fat diet feeding, a glucose tolerance test (GTT) was performed. For 8 hours for the test, mice were fasted. Then, blood was sampled from the tail vein, and initial blood glucose levels were measured with a blood glucose meter (AUTO-CHEK, Diatech Korea). Then, glucose was administered intraperitoneally to the mice at a concentration of 1 g/kg, and after 30 min, 60 min, 90 min and 120 min, blood was sampled from the mice, followed by measurement of blood glucose levels (each group consisting of five animals).
# (§11) Meanwhile, experimental analysis results were expressed as mean±S.E.M., and the significance between test groups was statistically processed using Student T-TEST, and then the significance was verified at *P<0.05.
# [5] = Body weight and body weight gain of high-fat diet mice; format: in vivo, mice (C57BL/6); details: for Body weight / Body weight gain: high-fat diet mice, mean
# Description: as §6, §7, §8, §9, §10
# The diet intake and the body weight gain were measured weekly for 8 weeks. The body weight and the diet intake were measured immediately before first drug administration, and then measured at one-week intervals.
# as §11
smiles,measurement,setting,value
"O=C[C@H](O)[C@@H](O)[C@H](O)[C@H](O)CO [Gluc, glucose]","PT clotting time prolongation relative to purified water, Mean","[1]; Table 19, listed as Gluc 6.2",1.69%
same,"PT clotting time prolongation relative to purified water, Mean","[1]; Table 19, listed as Gluc 12.4",2.26%
same,"aPTT clotting time prolongation relative to purified water, Mean","[2]; Table 19, listed as Gluc 6.2",2.22%
same,"aPTT clotting time prolongation relative to purified water, Mean","[2]; Table 19, listed as Gluc 12.4",2.89%
same,"TT clotting time prolongation relative to purified water, Mean","[3]; Table 19, values excluding one sample showing an extreme value, listed as Gluc 6.2",16.24%
same,"TT clotting time prolongation relative to purified water, Mean","[3]; Table 19, values excluding one sample showing an extreme value, listed as Gluc 12.4",27.82%
"O=C[C@@H](O)[C@H](O)[C@H](O)CO [Ara, arabinose]","TT clotting time prolongation relative to purified water, Mean","[3]; Table 18, listed as Ara 5.2",13.40%
same,"TT clotting time prolongation relative to purified water, Mean","[3]; Table 18, listed as Ara 7.8",22.92%
"O=C(CO)[C@@H](O)[C@H](O)[C@H](O)CO [Fruc, fructose]","PT clotting time prolongation relative to purified water, Mean",[1]; Table 20,0.54%
same,"aPTT clotting time prolongation relative to purified water, Mean",[2]; Table 20,−0.20%
same,"aPTT clotting time prolongation relative to purified water, Mean","[2]; Table 20, listed as Fruc 12.4",0.58%
same,"TT clotting time prolongation relative to purified water, Mean","[3]; Table 20, listed as Fruc 6.2",13.19%
same,"TT clotting time prolongation relative to purified water, Mean","[3]; Table 20, listed as Fruc 12.4",30.07%
"CC(=O)Oc1ccccc1C(=O)O [Asp 7.5 mg/ml, aspirin]","PT clotting time prolongation relative to purified water, Mean",[1]; Table 18,9.90%
same,"PT clotting time prolongation relative to purified water, Mean",[1]; Table 19,17.51%
same,"PT clotting time prolongation relative to purified water, Mean",[1]; Table 20,26.02%
same,"aPTT clotting time prolongation relative to purified water, Mean",[2]; Table 18,7.31%
same,"aPTT clotting time prolongation relative to purified water, Mean",[2]; Table 19,16.28%
same,"aPTT clotting time prolongation relative to purified water, Mean",[2]; Table 20,29.82%
same,"TT clotting time prolongation relative to purified water, Mean",[3]; Table 18,13.59%
same,"TT clotting time prolongation relative to purified water, Mean","[3]; Table 19, values excluding one sample showing an extreme value",20.96%
same,"TT clotting time prolongation relative to purified water, Mean",[3]; Table 20,23.95%
"O=C[C@H](O)[C@H](O)[C@H](O)CO [Rib, ribose]","TT clotting time prolongation relative to purified water, Mean","[3]; Table 19, values excluding one sample showing an extreme value, listed as Rib 5.2",23.15%
same,"TT clotting time prolongation relative to purified water, Mean","[3]; Table 19, values excluding one sample showing an extreme value, listed as Rib 10.4",52.50%
"CN(C)C(=N)N=C(N)N [Metformin, metformin]","Glucose level, 0 min","[4]; GTT, high-fat diet mice, 0 min (fasting, before administration), mean",144.20 mg/dL
same,"Glucose level, 30 min","[4]; GTT, high-fat diet mice, 30 min, mean",386.40 mg/dL
same,"Glucose level, 60 min","[4]; GTT, high-fat diet mice, 60 min, mean",301.40 mg/dL
same,"Glucose level, 90 min","[4]; GTT, high-fat diet mice, 90 min, mean",194.40 mg/dL
same,"Glucose level, 120 min","[4]; GTT, high-fat diet mice, 120 min, mean",135.20 mg/dL
same,Body weight,[5]; 1 week,21.00 g
same,Body weight,[5]; 2 weeks,22.78 g and 26.344 g
same,Body weight gain,[5]; 2 weeks,3.48 g
same,Body weight,[5]; 3 weeks,23.84 g
same,Body weight gain,[5]; 3 weeks,4.54 g
same,Body weight,[5]; 4 weeks,25.18 g
same,Body weight gain,[5]; 4 weeks,5.88 g and 4.600 g
same,Body weight,[5]; 5 weeks,25.72 g
same,Body weight gain,[5]; 5 weeks,6.42 g
same,Body weight,[5]; 6 weeks,26.34 g
same,Body weight gain,[5]; 6 weeks,7.04 g
same,Body weight,[5]; 7 weeks,27.52 g
same,Body weight gain,[5]; 7 weeks,8.22 g
same,Body weight,[5]; 8 weeks,28.20 g
same,Body weight,[5]; Before admis.,19.30 g
same,"Weight, Mean","[5]; HFD mice, sample in drinking water, 1 week",21.00 g
same,"Weight, Mean","[5]; HFD mice, sample in drinking water, 6 weeks",26.34 g
"NCCS(=O)(=O)O [Tau, taurine]",fasting glucose level,"[4]; 8 h fasted, 8 weeks of HFD, in words, comparator in the value","all lower than that of the mice administered with high-fat diet (HFD), and were similar to the blood glucose levels of normal mice"
same,glucose control ability in GTT,"[4]; glucose 1 g/kg i.p., 8 weeks of HFD, in words, comparator in the value",significantly higher than that of the group administered with HFD alone
same,"Body weight gain, Mean","[5]; HFD mice, sample in drinking water, 8 weeks",9.52 g
same,body weight gain compared to the group administered with high-fat diet (HFD) alone,"[5]; at 8 weeks after high-fat diet feeding, in words",significant reduction in body weight gain
"O=C[C@H](O)[C@@H](O)[C@H](O)CO [Xyl, xylose]","TT clotting time prolongation relative to purified water, Mean","[3]; Table 18, listed as Xyl 1.04",2.68%
same,"TT clotting time prolongation relative to purified water, Mean","[3]; Table 18, listed as Xyl 5.2",14.59%
same,"TT clotting time prolongation relative to purified water, Mean","[3]; Table 18, listed as Xyl 7.8",24.41%
"O=C[C@@H](O)[C@@H](O)[C@H](O)[C@H](O)CO [Mann, mannose]","PT clotting time prolongation relative to purified water, Mean","[1]; Table 20, listed as Mann 3.1",2.71%
same,"PT clotting time prolongation relative to purified water, Mean","[1]; Table 20, listed as Mann 6.2",5.96%
same,"PT clotting time prolongation relative to purified water, Mean","[1]; Table 20, listed as Mann 12.4",13.55%
same,"aPTT clotting time prolongation relative to purified water, Mean","[2]; Table 20, listed as Mann 3.1",0.65%
same,"aPTT clotting time prolongation relative to purified water, Mean","[2]; Table 20, listed as Mann 6.2",1.24%
same,"aPTT clotting time prolongation relative to purified water, Mean","[2]; Table 20, listed as Mann 12.4",7.98%
same,"TT clotting time prolongation relative to purified water, Mean","[3]; Table 20, listed as Mann 3.1",11.67%
same,"TT clotting time prolongation relative to purified water, Mean","[3]; Table 20, listed as Mann 6.2",22.74%
same,"TT clotting time prolongation relative to purified water, Mean","[3]; Table 20, listed as Mann 12.4",47.87%
